Residues, ends and D or L forms follow the SMILES beside them.
Columns and labels:
[1] = test system: right cerebral artery ischemia/reperfusion model in rats; assay: Neurologic deficit score in the rat 1.5-hour ischemia/reperfusion model; type: in vivo, Sprague-Dawley (SD) rats; settings: 3.6 mg/kg intraperitoneal once a day
Protocol: (§1) Sprague-Dawley (SD) rats, male, weighing 280-320 g, clean, feeding, conditions: room temperature of 20-25° C., humidity of 30-60%, well ventilated, ad libitum diet; the animals were acclimatized in the feeding environment for three days prior to the experiment.
(§2) The rats were anesthetized with 4% chloral hydrate (350 mg/kg, ip.) and then were fixed in a supine position. A midline ventral neck incision was made, the right common carotid artery was separated and snared with two sutures for further use. Then, the internal carotid artery and external carotid artery were separated, and the external carotid artery was ligatured. The separated common carotid artery was ligatured at its proximal end with a thread, and the blood flow of the same was blocked at its distal end with a bulldog clamp. A small opening was cut therebetween and a nylon suture (4-0) which is heated at one end into a bead-like shape (having a diameter of <0.3 mm) was inserted into the small opening. […]
Neurologic deficit scores were assessed for the above experimental animals according to the following procedure before the beginning of experiment and 24 hours, 1 day, 3 days, 7 days, 14 days, 28 days, 56 days, and 112 days after the beginning of experiment; Score rules: see Zea Longer score and NSS score, full score of 10; • (i) Lifting an animal by tail: (full score of 1) […]

[2] = Body weight of rats in the 1.5-hour ischemia/reperfusion model; type: in vivo, Sprague-Dawley (SD) rats; settings: 3.6 mg/kg intraperitoneal once a day
Protocol: as §1
as §2, with “opening. The bulldog clamp was removed, and the nylon suture was gently advanced to the origin of the anterior cerebral artery (18-20 mm), thereby causing arterial ischemia in brain by blocking the blood supply of the cerebral artery. The skin was sutured and was sterilized with tincture of iodine.” for “opening.”

Structure (SMILES): CC(C)CC(NC(=O)C(CCC(N)=O)NC(=O)C(NC(=O)C(CO)NC(=O)C(Cc1c[nH]cn1)NC(=O)C(N)C(C)C)C(C)C)C(=O)NC(Cc1ccc(O)cc1)C(=O)O (stereo not shown) [compound of formula (III)] (H-VHSVQLY-OH; configuration not given here)
- neuroethology (neurologic deficit) score compared to the model group ([1]; I1.5R+1 week+dosing for 4 weeks, statistically significant in weeks 2, 3, 4, 5 and 7 after the operation, FIG. 4): gradually declined neuroethology score
- neurological score compared to the model group ([1]; I1.5R+2 weeks+dosing for 4 weeks, statistically significant at the fifth week after the operation, FIG. 6): declined from the beginning of the administration
- weight change compared to the model group ([2]; I1.5R+1 week+dosing for 4 weeks, FIG. 3): gradually increased weight
- weight change compared to the model group ([2]; I1.5R+2 weeks+dosing for 4 weeks, weight data not demonstrative (groups already differed before dosing), FIG. 5): gradually increased weight
